These results are taken from ChEMBL document CHEMBL1201862, “PubChem BioAssay data set” (2004).

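Growth conditions: 96-well plates. Treatment: test compound, 48 hours, 5 concentrations. Analysis: linear interpolation between bracketing concentrations; unreached endpoints set to highest concentration. At the GI50, growth is halved.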 Active and inactive are the calls of the source. No stated cut-off is given here; in the data, active = GI50 up to about 1.1 µM and inactive = higher.

Test systems include 786-0; BT-549; HCC 2998; HOP-92; HT-29; K562; LOX IMVI; MCF7; MDA-MB-231; MDA-MB-435; NCI-H23; NCI-H460; OVCAR-5; RXF 393; SF-268; SK-MEL-28; T47D.
What all share (assay): NCI-60 cell line screen, 48 h

On to `COC(=O)CC1C=CC(C)(OC)OO1` (centres undefined), for which the GI50 was > 100 µM (inactive) with 786-0; > 100 µM (inactive) in the experiment with BT-549; 59.7 µM (inactive) in the experiment with HCC 2998; > 100 µM (inactive) with HOP-92; > 100 µM (inactive) in the experiment with HT-29; 19.7 µM (inactive) in the experiment with K562. The GI50 in the experiment on LOX IMVI was 48.3 µM (inactive); with MCF7, 53.1 µM (inactive); with MDA-MB-231, > 100 µM (inactive); in the experiment with MDA-MB-435 it was > 100 µM (inactive); in the experiment with NCI-H23, > 100 µM (inactive); with NCI-H460, 4.84 µM (inactive). In addition, the GI50 was > 100 µM (inactive) in the experiment on OVCAR-5; 51.1 µM (inactive) with RXF 393; > 100 µM (inactive) in the experiment on SF-268; > 100 µM (inactive) in the experiment with SK-MEL-28; > 100 µM (inactive) in the experiment with T47D.
For `CC(=O)OCC12CN(C#N)C3C4COC(CC41)C1(C(=O)N(C)c4ccccc41)C32` (centres undefined), the GI50 in the experiment with 786-0 was 28.3 µM (inactive); with BT-549 it was 2.64 µM (inactive); in the experiment with HCC 2998 it was 28.2 µM (inactive); in the experiment with HOP-92 it was 19.7 µM (inactive); with HT-29, 33 µM (inactive); with K562, 14.8 µM (inactive). The GI50 with LOX IMVI was 20.6 µM (inactive); in the experiment with MCF7 it was 19.3 µM (inactive); with MDA-MB-231 it was 13.4 µM (inactive); in the experiment on MDA-MB-435, 26.8 µM (inactive); with NCI-H23 it was 15.6 µM (inactive); in the experiment on NCI-H460, 31.3 µM (inactive). Moreover, the GI50 in the experiment with OVCAR-5 was 33.4 µM (inactive); with RXF 393, 12.1 µM (inactive); in the experiment on SF-268, 29.1 µM (inactive); in the experiment on SK-MEL-28 it was 19.2 µM (inactive); in the experiment on T47D, 18.8 µM (inactive).
On to `CC1NCCC(CC(=O)O)C1CC(=O)O` (centres undefined), for which the GI50 with 786-0, in the experiment on BT-549, with HCC 2998, with HOP-92, in the experiment on HT-29 and in the experiment on K562 was > 100 µM (inactive) in each case. Besides, the GI50 in the experiment with LOX IMVI, in the experiment with MCF7, with MDA-MB-231, in the experiment with MDA-MB-435, in the experiment on NCI-H23 and in the experiment with NCI-H460 was > 100 µM (inactive) in each case. For the same compound, the GI50 with OVCAR-5, in the experiment with RXF 393, in the experiment with SF-268, in the experiment on SK-MEL-28 and with T47D was > 100 µM (inactive) throughout.
Take `CN(C)CCCNc1ccc2nnn3c4ccc(OC(=O)c5ccccc5)cc4c(=O)c1c23`: the GI50 in the experiment with 786-0 was 3.08 µM (inactive); with BT-549 it was 16.8 µM (inactive); with HCC 2998, 9.08 µM (inactive); in the experiment with HOP-92, 12.6 µM (inactive); in the experiment with HT-29 it was 3.71 µM (inactive); with K562 it was 1.81 µM (inactive). For the same compound, the GI50 in the experiment with LOX IMVI was 2.17 µM (inactive); in the experiment with MCF7 it was 6.07 µM (inactive); with MDA-MB-231 it was 10.4 µM (inactive); with MDA-MB-435, 6.4 µM (inactive); in the experiment on NCI-H23, 13.4 µM (inactive); with NCI-H460, 0.76 µM (active). The GI50 is 14.4 µM (inactive) with OVCAR-5; 4.44 µM (inactive) with RXF 393; 10.5 µM (inactive) in the experiment on SF-268; 15.8 µM (inactive) with SK-MEL-28; 18.7 µM (inactive) in the experiment with T47D.
Take `Cc1ccc(/C=C2\CN(C)CC3C(c4ccc(C)cc4)=C(C#N)C(=O)NC23)cc1` (centres undefined): the GI50 is > 50 µM (inactive) with 786-0; > 50 µM (inactive) in the experiment with BT-549; > 50 µM (inactive) in the experiment with HCC 2998; 29.3 µM (inactive) with HOP-92; > 50 µM (inactive) with HT-29; > 50 µM (inactive) with K562. Also, the GI50 is > 50 µM (inactive) in the experiment on LOX IMVI; > 50 µM (inactive) with MCF7; 48.2 µM (inactive) with MDA-MB-231; > 50 µM (inactive) in the experiment with MDA-MB-435; > 50 µM (inactive) in the experiment with NCI-H23; > 50 µM (inactive) in the experiment with NCI-H460. The GI50 in the experiment with OVCAR-5, in the experiment with RXF 393, with SF-268, in the experiment with SK-MEL-28 and in the experiment on T47D was > 50 µM (inactive) each time.
On to `NC(=O)NCCCC(NC(=O)OCCCCCn1ccc(=O)[nH]c1=O)C(=O)O` (centres undefined), for which the GI50 with 786-0, with BT-549, in the experiment with HCC 2998, with HOP-92, in the experiment with HT-29 and in the experiment on K562 was > 100 µM (inactive) each time. In addition, the GI50 with LOX IMVI, in the experiment on MCF7, in the experiment with MDA-MB-231, in the experiment with MDA-MB-435, in the experiment with NCI-H23 and in the experiment with NCI-H460 was > 100 µM (inactive) in each case. Further, the GI50 in the experiment with OVCAR-5, in the experiment with RXF 393, in the experiment on SF-268, in the experiment with SK-MEL-28 and in the experiment on T47D was > 100 µM (inactive) in each case.
`COc1ccc(C(=O)CC(c2ccc(OC)c(OC)c2)c2c(O)oc3ccccc3c2=O)cc1OC` (centres undefined): the GI50 in the experiment with 786-0 is > 100 µM (inactive); in the experiment on BT-549 it was > 100 µM (inactive); with HCC 2998 it was > 100 µM (inactive); with HOP-92 it was 28.4 µM (inactive); in the experiment on HT-29 it was > 100 µM (inactive); with K562, > 100 µM (inactive). Besides, the GI50 in the experiment with LOX IMVI, in the experiment with MCF7, in the experiment on MDA-MB-231, with MDA-MB-435, with NCI-H23 and in the experiment with NCI-H460 was > 100 µM (inactive) throughout. Besides, the GI50 with OVCAR-5, in the experiment on RXF 393, in the experiment on SF-268, with SK-MEL-28 and in the experiment with T47D was > 100 µM (inactive) each time.
With `COC(=O)C1=C(C(=O)OC)C2(c3ccccc3)c3ccccc3C(=O)C1N2C1CCCCC1` (centres undefined), the GI50 in the experiment on 786-0 was 47.4 µM (inactive); in the experiment on BT-549 it was > 100 µM (inactive); in the experiment on HCC 2998, 23.2 µM (inactive); in the experiment on HOP-92, > 100 µM (inactive); in the experiment with HT-29 it was 42.1 µM (inactive); in the experiment with K562 it was 3.42 µM (inactive). In addition, the GI50 is 22 µM (inactive) with LOX IMVI; 37.7 µM (inactive) with MCF7; > 32.4 µM (inactive) in the experiment with MDA-MB-231; 86.7 µM (inactive) in the experiment on MDA-MB-435; > 52.5 µM (inactive) with NCI-H23; 24.5 µM (inactive) in the experiment on NCI-H460. The GI50 in the experiment on OVCAR-5 was 54.8 µM (inactive); with RXF 393 it was 33.7 µM (inactive); in the experiment with SF-268, 88.7 µM (inactive); in the experiment with SK-MEL-28 it was > 62.1 µM (inactive); in the experiment on T47D it was > 100 µM (inactive).
For `CCN(CC)CCn1c(=O)c2ccccc2n2c3c(=O)n(C)c(=O)n(C)c3nc12`, the GI50 in the experiment on 786-0 was 1.32 µM (inactive); in the experiment on BT-549 it was 1.19 µM (inactive); with HCC 2998, 1.93 µM (inactive); in the experiment with HOP-92 it was 1.47 µM (inactive); with HT-29, 2.2 µM (inactive); in the experiment on K562 it was 2.21 µM (inactive). Also, the GI50 in the experiment on LOX IMVI was 13.2 µM (inactive); in the experiment with MCF7 it was 0.337 µM (active); in the experiment with MDA-MB-231 it was 5.14 µM (inactive); in the experiment with MDA-MB-435 it was 4.71 µM (inactive); with NCI-H23 it was 2.07 µM (inactive); with NCI-H460, 0.148 µM (active). Besides, the GI50 in the experiment on OVCAR-5 was 2.53 µM (inactive); in the experiment with RXF 393, 5.27 µM (inactive); with SF-268, 2.07 µM (inactive); in the experiment on SK-MEL-28, 5.15 µM (inactive); in the experiment on T47D, 2.15 µM (inactive).
As for `COc1ccc(N2C(=O)CC(=O)N(NC(=O)C(C)Oc3ccccc3C)C2=S)cc1` (centres undefined), the GI50 with 786-0, in the experiment on BT-549, with HCC 2998, in the experiment on HOP-92, in the experiment with HT-29 and in the experiment on K562 was > 100 µM (inactive) each time. Moreover, the GI50 in the experiment with LOX IMVI, in the experiment with MCF7, in the experiment with MDA-MB-231, in the experiment with MDA-MB-435, in the experiment on NCI-H23 and in the experiment with NCI-H460 was > 100 µM (inactive) throughout. Further, the GI50 with OVCAR-5, with RXF 393, in the experiment on SF-268, in the experiment with SK-MEL-28 and in the experiment on T47D was > 100 µM (inactive) in each case.
Take `O=S1(=O)CCN(Cc2ccccn2)CC1`: the GI50 in the experiment on 786-0, in the experiment on BT-549, in the experiment on HCC 2998, in the experiment with HOP-92, with HT-29 and in the experiment on K562 was > 100 µM (inactive) in each case. Also, the GI50 with LOX IMVI, with MCF7, with MDA-MB-231, with MDA-MB-435, in the experiment with NCI-H23 and with NCI-H460 was > 100 µM (inactive) throughout. For the same compound, the GI50 in the experiment on OVCAR-5, in the experiment on RXF 393, in the experiment on SF-268, in the experiment with SK-MEL-28 and in the experiment on T47D was > 100 µM (inactive) in each case.
Consider `COc1ccc2c(c1)N=C1CSC(c3cc([N+](=O)[O-])ccc3Cl)N1C2` (centres undefined), for which the GI50 in the experiment on 786-0 was 26.2 µM (inactive); in the experiment with BT-549, 26.2 µM (inactive); in the experiment on HCC 2998 it was 16.6 µM (inactive); in the experiment on HOP-92, 19.6 µM (inactive); with HT-29, 23.6 µM (inactive); with K562, 26 µM (inactive). Besides, the GI50 with LOX IMVI is 33 µM (inactive); with MCF7 it was 14.8 µM (inactive); in the experiment on MDA-MB-231 it was 20.8 µM (inactive); in the experiment on MDA-MB-435, 15.6 µM (inactive); with NCI-H23 it was 22.2 µM (inactive); in the experiment on NCI-H460, 19.4 µM (inactive). Besides, the GI50 in the experiment on OVCAR-5 was 24 µM (inactive); in the experiment with RXF 393 it was 19.8 µM (inactive); in the experiment on SF-268, 34.5 µM (inactive); in the experiment on SK-MEL-28, 17.2 µM (inactive); with T47D it was 29.5 µM (inactive).
